Results from US6498005B1, “Homogeneous assay methods” (Caliper Technologies Corp., priority 1998, dated 2002).

What was measured:
[1] = target: T1, catalytic subunit of cAMP dependent protein kinase A (PKA) (Bos taurus, UniProt P00517); test: Homogeneous PKA kinase assay: thiophosphorylation, biotinylation, fluorescence polarization with streptavidin; type: biochemical
T1 construct: purchased Promega Corp. V5161
Experimental: A typical reaction mixture (50 μl) contained 20 mM HEPES pH 7.5, 10 mM MgCl2, 50 μM fluorescein labeled Kemptide (Research Genetics, Huntsville, Ala., USA), 500 μM ATPγS (Sigma, St. Louis, Mo., USA, #A-1388), and 1 μl of the catalytic subunit of cAMP dependent protein kinase A (Promega Corp., Madison, Wis., USA, #V5161). The approximate final concentration of the enzyme was 700 nM. […] The mixture was incubated at room temperature for 15 min and the reaction terminated by the addition of EDTA to 45 mM. As a negative control, EDTA was added to one of the reaction mixtures before the addition of the kinase. The extent of thiophosphorylation was then analyzed by capillary electrophoresis with fluorescence detection either on a Beckman P/ACE System 5500 instrument, using a 50 μm fused silica capillary with 50 mM borate, pH 8.6 as the separation buffer, or on a microfabricated chip as described in Cohen et al., Anal. Chem. 273:89-97 (1999). Substrate and product peak areas were integrated and the extent of substrate phosphorylation was determined from their ratio. […] The outcome of the biotinylation reaction could be determined at this point by capillary electrophoresis as described above, however, this is not required, nor is it preferred. […] An aliquot (1 μl) of the biotinylation reaction from step B was diluted in 400 μl of 50 mM HEPES, pH 7.4 and its fluorescence polarization measured. […]

PKA = PKA (Bos taurus, UniProt P00517); test: PKA assays at different ATPγS concentrations on a microchip; type: biochemical; details: read-out: Km (Michaelis-Menten constant for the co-factor)
Experimental: A typical reaction mixture (50 μl) contained 20 mM HEPES pH 7.5, 10 mM MgCl2, 50 μM fluorescein labeled Kemptide (Research Genetics, Huntsville, Ala., USA), 500 μM ATPγS (Sigma, St. Louis, Mo., USA, #A-1388), and 1 μl of the catalytic subunit of cAMP dependent protein kinase A (Promega Corp., Madison, Wis., USA, #V5161). The approximate final concentration of the enzyme was 700 nM. […] The mixture was incubated at room temperature for 15 min and the reaction terminated by the addition of EDTA to 45 mM. As a negative control, EDTA was added to one of the reaction mixtures before the addition of the kinase. The extent of thiophosphorylation was then analyzed by capillary electrophoresis with fluorescence detection either on a Beckman P/ACE System 5500 instrument, using a 50 μm fused silica capillary with 50 mM borate, pH 8.6 as the separation buffer, or on a microfabricated chip as described in Cohen et al., Anal. Chem. 273:89-97 (1999). Substrate and product peak areas were integrated and the extent of substrate phosphorylation was determined from their ratio.
Following a 15-min incubation, the reactions were stopped by the addition of EDTA, treated with iodoacetyl-LC-biotin, and analyzed by fluorescence polarization in the presence of streptavidin. […]

Row | IC50 ([1]; H-89 0.5-10 μM, 500 μM ATPγS, 50 μM fluorescein labeled Kemptide, 15-min incubation at room temperature, estimated from substrate conversion) [µM] | Ki ([1]; calculated from IC50=Ki(1+[S]/Km), ATPγS 500 μM, Km about 6 μM) [µM] | Compound | Km (PKA) [µM]
1 | ~5 | ~0.06 | O=S(=O)(NCCNC/C=C/c1ccc(Br)cc1)c1cccc2cnccc12 [H-89] | 
2 |  |  | Nc1ncnc2c1ncn2[C@@H]1O[C@H](COP(=O)(O)OP(=O)(O)OP(O)(O)=S)[C@@H](O)[C@H]1O [ATPγS] | ~6
